Data set [1] concerns the target JAK1 (Homo sapiens (Human), UniProt P23458). The data set can be described thus: Biochemical kinase assay (33P-ATP filter-binding), JAK1. The note with it: read-out: IC50 JAK1. From the text:
(§1) Biochemical Kinase Assay Protocol (JAK)
(§2) Reaction Procedure: • 1. […] Detected kinase activity by filter-binding method.

Data set [2] addresses JAK2 (Homo sapiens (Human), UniProt O60674). In words: Biochemical kinase assay (33P-ATP filter-binding), JAK2. As to conditions: read-out: IC50 JAK2.
Source text: as §1, §2

Data set [3] can be described thus: Dog LM (liver microsome) assay. Type of data set: in vitro ADME. As to conditions: Table 3a; predicted clearance as percent of liver blood flow, 1 μM, 1 mg/ml microsomal protein. As for the experimental part:
Dog LM (Liver Microsome) Assay
The metabolic degradation of the test compound is assayed at 37° C. with pooled liver microsomes from dogs (Beagle). The final incubation volume of 100 μl per time point contains TRIS buffer pH 7.6 at RT (0.1 M), magnesium chloride (5 mM), microsomal protein (1 mg/ml) and the test compound at a final concentration of 1 μM. Following a short preincubation period at 37° C., the reactions were initiated by addition of beta-nicotinamide adenine dinucleotide phosphate, reduced form (NADPH, 1 mM) and terminated by transferring an aliquot into solvent after different time points. Additionally, the NADPH-independent degradation was monitored in incubations without NADPH, terminated at the last time point. The [%] remaining test compound after NADPH independent incubation is reflected by the parameter c (control) (metabolic stability). The quenched incubations are pelleted by centrifugation (10000 g, 5 min). An aliquot of the supernatant is assayed by LC-MS/MS for the amount of parent compound. The half-life (t½ INVITRO) is determined by the slope of the semilogarithmic plot of the concentration-time profile. The intrinsic clearance (CL_[…]) is calculated by considering the amount of protein in the incubation: CL_[…] [μl/min/mg protein]=(Ln 2/(half-life [min]*protein content [mg/ml]))*1000. For better across species comparison the predicted clearance is expressed as percent of the liver blood flow [% QH] in the individual species. In general, high stability (corresponding to low % QH) of the compounds across species is desired.

SMILES strings stand for the structures. Where two headings read alike, the source gives them in different places.

Sequence of JAK1 (P23458 whole entry, species assumed): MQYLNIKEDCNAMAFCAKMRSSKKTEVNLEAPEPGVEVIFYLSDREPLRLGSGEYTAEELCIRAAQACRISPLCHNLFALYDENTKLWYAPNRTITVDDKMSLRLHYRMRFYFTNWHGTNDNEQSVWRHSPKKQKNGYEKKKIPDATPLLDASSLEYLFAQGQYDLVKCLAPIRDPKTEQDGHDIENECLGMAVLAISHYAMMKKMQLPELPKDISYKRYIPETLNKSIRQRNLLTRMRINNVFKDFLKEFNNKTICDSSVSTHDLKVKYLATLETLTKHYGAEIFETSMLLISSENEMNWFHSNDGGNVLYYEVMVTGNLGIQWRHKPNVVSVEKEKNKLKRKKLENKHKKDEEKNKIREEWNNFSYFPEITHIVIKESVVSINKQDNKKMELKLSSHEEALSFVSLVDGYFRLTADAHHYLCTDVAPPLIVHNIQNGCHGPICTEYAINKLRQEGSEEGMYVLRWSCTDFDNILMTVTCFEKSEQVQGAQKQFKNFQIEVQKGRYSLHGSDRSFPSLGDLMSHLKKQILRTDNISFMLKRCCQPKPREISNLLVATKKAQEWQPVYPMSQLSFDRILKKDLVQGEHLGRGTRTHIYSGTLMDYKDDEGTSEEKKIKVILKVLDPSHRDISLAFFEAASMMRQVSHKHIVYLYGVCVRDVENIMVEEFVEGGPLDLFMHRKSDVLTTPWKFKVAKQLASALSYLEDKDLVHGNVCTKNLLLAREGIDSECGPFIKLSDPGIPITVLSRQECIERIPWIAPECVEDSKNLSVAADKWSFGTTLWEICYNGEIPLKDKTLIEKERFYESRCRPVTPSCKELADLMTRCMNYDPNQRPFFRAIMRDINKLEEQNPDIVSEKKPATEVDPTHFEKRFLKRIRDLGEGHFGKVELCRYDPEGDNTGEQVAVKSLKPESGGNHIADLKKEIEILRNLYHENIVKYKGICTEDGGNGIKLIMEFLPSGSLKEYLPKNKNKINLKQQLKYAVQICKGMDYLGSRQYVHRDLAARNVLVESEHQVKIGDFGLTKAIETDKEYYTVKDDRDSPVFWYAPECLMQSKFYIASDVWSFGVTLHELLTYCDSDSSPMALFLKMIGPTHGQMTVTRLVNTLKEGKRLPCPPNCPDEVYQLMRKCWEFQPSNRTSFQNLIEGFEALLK
Sequence of JAK2 (O60674 whole entry, species assumed): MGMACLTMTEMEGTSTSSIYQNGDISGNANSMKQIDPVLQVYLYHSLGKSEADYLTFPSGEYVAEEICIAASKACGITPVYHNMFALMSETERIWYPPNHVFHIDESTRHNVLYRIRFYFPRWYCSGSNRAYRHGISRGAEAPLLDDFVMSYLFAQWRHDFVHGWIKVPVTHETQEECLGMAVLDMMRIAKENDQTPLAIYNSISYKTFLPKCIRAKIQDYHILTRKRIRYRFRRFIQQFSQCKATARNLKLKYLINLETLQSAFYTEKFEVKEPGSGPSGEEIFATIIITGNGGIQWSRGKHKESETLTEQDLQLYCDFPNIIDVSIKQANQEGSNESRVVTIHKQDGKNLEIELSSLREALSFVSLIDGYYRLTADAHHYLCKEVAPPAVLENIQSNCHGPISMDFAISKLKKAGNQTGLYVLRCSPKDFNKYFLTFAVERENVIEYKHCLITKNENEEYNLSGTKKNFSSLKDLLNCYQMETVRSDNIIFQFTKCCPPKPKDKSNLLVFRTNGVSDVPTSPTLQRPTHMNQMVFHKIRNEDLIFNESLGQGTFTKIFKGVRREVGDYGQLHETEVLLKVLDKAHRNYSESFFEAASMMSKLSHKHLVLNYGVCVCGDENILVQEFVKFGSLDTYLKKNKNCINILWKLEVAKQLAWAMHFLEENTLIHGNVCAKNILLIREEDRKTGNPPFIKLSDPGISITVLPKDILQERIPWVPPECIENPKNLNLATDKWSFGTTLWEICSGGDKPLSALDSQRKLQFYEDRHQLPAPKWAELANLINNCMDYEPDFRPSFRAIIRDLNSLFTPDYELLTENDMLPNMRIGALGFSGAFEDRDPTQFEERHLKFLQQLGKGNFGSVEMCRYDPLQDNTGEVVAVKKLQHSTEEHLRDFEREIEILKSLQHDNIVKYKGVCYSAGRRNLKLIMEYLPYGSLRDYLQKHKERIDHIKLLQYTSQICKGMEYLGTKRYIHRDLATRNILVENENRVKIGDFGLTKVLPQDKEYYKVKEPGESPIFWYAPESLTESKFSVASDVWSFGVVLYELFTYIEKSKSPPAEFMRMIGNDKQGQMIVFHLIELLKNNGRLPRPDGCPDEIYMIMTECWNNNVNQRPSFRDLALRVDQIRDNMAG

On to `CC1=Cc2cc(Nc3ncc(C)c(NC4COCCC4C#N)n3)ccc2OB1O` (stereo not drawn) [Example 038, 3-[[2-[(2-hydroxy-3-methyl-1,2-benzoxaborinin-6-yl)amino]-5-methyl-pyrimidin-4-yl]amino]tetrahydropyran-4-carbonitrile], for which the IC50 in data set [1] (Table 3a) was found to be 1.4 nM; in data set [2] (Table 3a) it was 23.7 nM. Also, the “Dog LM QH” value in data set [3] is given as 50.4%.
Take `OB1OCc2cc(Nc3ncc(F)c(NC4CCCC4)n3)ccc21` [Example C013]: the IC50 was found to be 32.3 nM in data set [1] (Table 3b, comparator compounds) and 705 nM in data set [2] (Table 3b, comparator compounds).
On to `Cc1cnc(Nc2cc(Cl)c3c(c2)COB3O)nc1N[C@H]1CCCC[C@@H]1C#N` (single isomer, unassigned) [Example 010b, (trans)-2-[[2-[(7-chloro-1-hydroxy-3H-2,1-benzoxaborol-5-yl)amino]-5-methyl-pyrimidin-4-yl]amino]cyclohexanecarbonitrile], for which the values for the IC50 in data set [1] (Table 3a) and in data set [2] (Table 3a) were 22.3 nM and 811 nM, respectively.
As for `Cc1cnc(Nc2cc(Cl)c3c(c2)COB3O)nc1N[C@@H]1COCC[C@H]1C#N` (single isomer, unassigned) [Example 031a, (trans)-3-((2-((7-chloro-1-hydroxy-1,3-dihydrobenzo[c][1,2]oxaborol-5-yl)amino)-5-methylpyrimidin-4-yl)amino)tetrahydro-2H-pyran-4-carbonitrile], the “Dog LM QH” value in data set [3] is given as below 19.9%.
For `N#C[C@@H]1CCC[C@H]1Nc1nc(Nc2cc(Cl)c3c(c2)COB3O)ncc1C(F)(F)F` (relative stereo) [Example 022, (trans)-2-[[2-[(7-chloro-1-hydroxy-3H-2,1-benzoxaborol-5-yl)amino]-5-(trifluoromethyl)pyrimidin-4-yl]amino]cyclopentanecarbonitrile], the IC50 was determined as 3.3 nM in data set [1] (Table 3a) and 7.5 nM in data set [2] (Table 3a).
In the case of `N#C[C@@H]1CCCC[C@H]1Nc1nc(Nc2cc(F)c3c(c2)COB3O)ncc1Cl` (relative stereo) [Example 023, (trans)-2-((5-chloro-2-((7 fluoro-1-hydroxy-1,3-dihydrobenzo[c][1,2]oxaborol-5-yl)amino)pyrimidin-4-yl)amino)cyclohexane-1-carbonitrile], the IC50 in data set [1] (Table 3a) was 0.2 nM; in data set [2] (Table 3a), 0.6 nM.
Turning to `COc1cc(Nc2ncc(C)c(N[C@H]3COCC[C@@H]3C#N)n2)cc2c1B(O)OC2` (single isomer, unassigned) [Example 044b, (trans)-3-((2-((1-hydroxy-7-methoxy-1,3-dihydrobenzo[c][1,2]oxaborol-5-yl)amino)-5-methylpyrimidin-4-yl)amino)tetrahydro-2H-pyran-4-carbonitrile], the values for the IC50 in data set [1] (Table 3a) and in data set [2] (Table 3a) were 33.8 nM and 96.8 nM, respectively. The “Dog LM QH” value in data set [3] is reported as below 19.9%.
For the compound `Cc1cc(Nc2ncc(Cl)c(NC3CCCCC3C#N)n2)cc2c1B(O)OC2` (stereo not drawn) [Example 024, 2-[[5-chloro-2-[(1-hydroxy-7-methyl-3H-2,1-benzoxaborol-5-yl)amino]pyrimidin-4-yl]amino]cyclohexanecarbonitrile], the IC50 came out at 5.9 nM in data set [1] (Table 3a) and 11.2 nM in data set [2] (Table 3a).
Take `CC1=Cc2cc(Nc3ncc(C)c(N[C@@H]4CCCC[C@H]4C#N)n3)ccc2OB1O` (relative stereo) [Example 016, (trans)-2-((2-((2-hydroxy-3-methyl-2H-benzo[e][1,2]oxaborinin-6-yl)amino)-5-methylpyrimidin-4-yl)amino)cyclohexane-1-carbonitrile]: the IC50 was 2.5 nM in data set [1] (Table 3a) and 17.5 nM in data set [2] (Table 3a). Further, the “Dog LM QH” value in data set [3] was 70.2%.
Regarding `Cc1cnc(Nc2ccc3c(c2)C=CB(O)O3)nc1N[C@@H]1CCC[C@H]1C#N` (relative stereo) [Example 007, (trans)-2-((2-((2-hydroxy-2H-benzo[e][1,2]oxaborinin-6-yl)amino)-5-methylpyrimidin-4-yl)amino)cyclopentane-1-carbonitrile], the results for the IC50 in data set [1] (Table 3a) and in data set [2] (Table 3a) were 5.3 nM and 52.6 nM, respectively.
For `N#C[C@@H]1CCOC[C@H]1Nc1nc(Nc2cc(Cl)c3c(c2)COB3O)ncc1Cl` (relative stereo) [Example 048, (trans)-3-[[5-chloro-2-[(7-chloro-1-hydroxy-3H-2,1-benzoxaborol-5-yl)amino]pyrimidin-4-yl]amino]tetrahydropyran-4-carbonitrile], in that order: 0.6 nM and 15.6 nM.
For `N#C[C@@H]1CCCC[C@H]1Nc1nc(Nc2cc(Cl)c3c(c2)COB3O)ncc1F` (relative stereo) [Example 020, (trans)-2-[[2-[(7-chloro-1-hydroxy-3H-2,1-benzoxaborol-5-yl)amino]-5 fluoropyrimidin-4-yl]amino]cyclohexanecarbonitrile], in that order: 1.4 nM and 50.7 nM.
For `N#C[C@@H]1CCCC[C@H]1Nc1nc(Nc2cc(Cl)c3c(c2)COB3O)ncc1C(F)(F)F` (relative stereo) [Example 021, (trans)-2-((2-((7-chloro-1-hydroxy-1,3-dihydrobenzo[c][1,2]oxaborol-5-yl)amino)-5-(trifluoromethyl)pyrimidin-4-yl)amino)cyclohexanecarbonitrile], in that order: 2.7 nM and 3.2 nM.
For the compound `Cc1cnc(Nc2cc(C#N)c3c(c2)COB3O)nc1N[C@@H]1COCC[C@H]1C#N` (relative stereo) [Example 045, 5-((4-(((trans)-4-cyanotetrahydro-2H-pyran-3-yl)amino)-5-methylpyrimidin-2-yl)amino)-1-hydroxy-1,3-dihydrobenzo[c][1,2]oxaborole-7-carbonitrile], the IC50 stood at 0.5 nM in data set [1] (Table 3a) and 10.6 nM in data set [2] (Table 3a).
The like results for `Cc1cnc(Nc2cc3c4c(c2)OCCOB4OC3)nc1N[C@@H]1CCC[C@H]1C#N` (relative stereo) [Example 004, (trans)-2-((2-((7,8-dihydro-2H-1,6,9-trioxa-9a-borabenzo [cd]azulen-4-yl)amino)-5-methylpyrimidin-4-yl)amino)cyclopentane-1-carbonitrile] were, in that order, 1.6 nM and 49.7 nM.
The like results for `N#C[C@@H]1CCOC[C@H]1Nc1nc(Nc2ccc3c(c2)COB3O)ncc1Cl` (relative stereo) [Example 047, (trans)-3-((5-chloro-2-((1-hydroxy-1,3-dihydrobenzo[c][1,2]oxaborol-5-yl)amino)pyrimidin-4-yl)amino)tetrahydro-2H-pyran-4-carbonitrile] were, in that order, 0.34 nM and 7.6 nM.
Take `Cc1cnc(Nc2ccc3c(c2)C=CB(O)O3)nc1N[C@@H]1CCCC[C@H]1C#N` (relative stereo) [Example 015, (trans)-2-[[2-[(2-hydroxy-1,2-benzoxaborinin-6-yl)amino]-5-methyl-pyrimidin-4-yl]amino]cyclohexanecarbonitrile]: the IC50 in data set [1] (Table 3a) came out at 9 nM; in data set [2] (Table 3a), 103 nM.
As to `Cc1cnc(Nc2cc(Cl)c3c(c2)COB3O)nc1NC1CCCC[C@@H]1C#N` (single isomer, unassigned) [Example 010b, (trans)-2-[[2-[(7-chloro-1-hydroxy-3H-2,1-benzoxaborol-5-yl)amino]-5-methyl-pyrimidin-4-yl]amino]cyclohexanecarbonitrile], the “Dog LM QH” value in data set [3] is below 19.9%.
For the compound `N#C[C@@H]1CCCC[C@H]1Nc1nc(Nc2cc(Cl)c3c(c2)COB3O)ncc1Cl` (relative stereo) [Example 019, (trans)-2-((5-chloro-2-((7-chloro-1-hydroxy-1,3-dihydrobenzo[c][1,2]oxaborol-5-yl)amino)pyrimidin-4-yl)amino)cyclohexane-1-carbonitrile], the IC50 in data set [1] (Table 3a) worked out at 0.2 nM; in data set [2] (Table 3a), 3.2 nM.
For `N#C[C@@H]1CCOC[C@H]1Nc1nc(Nc2cc(Cl)c3c(c2)COB3O)ncc1F` (relative stereo) [Example 046, (trans)-3-((2-((7-chloro-1-hydroxy-1,3-dihydrobenzo[c][1,2]oxaborol-5-yl)amino)-5-fluoropyrimidin-4-yl)amino) tetrahydro-2H-pyran-4-carbonitrile], in that order: 3.4 nM and 186 nM.
Regarding `Cc1cnc(Nc2cc3c4c(c2)OCCOB4OC3)nc1NC1CCCCC1C#N` (stereo not drawn) [Example 013, (trans)-2-((2-((7,8-dihydro-2H-1,6,9-trioxa-9a-borabenzo[c,d]azulen-4-yl)amino)-5-methylpyrimidin-4-yl)amino)cyclohexane-1-carbonitrile], the IC50 in data set [1] (Table 3a) came out at 2.6 nM; in data set [2] (Table 3a), 101 nM.
The like results for `Cc1cnc(Nc2ccc3c(c2)C(C)OB3O)nc1NC1COCCC1C#N` (stereo not drawn) [Example 028, (trans)-3-[[2-[(1-hydroxy-3-methyl-3H-2,1-benzoxaborol-5-yl)amino]-5-methyl-pyrimidin-4-yl]amino]tetrahydropyran-4-carbonitrile] were, in that order, 0.5 nM and 3.5 nM.

The record behind these values is US20240132525A1, “BORON […], CO[…], METHODS AND USES THEREOF” (priority 2022, published 2024).
